The record followed here is ChEMBL document CHEMBL1158175, “Substituted benzylaminoalkylindoles with preference for the sigma2 binding site” (Eur J Med Chem, 2008).

Molecules are shown by their SMILES.

Assay [1] addresses Sigma non-opioid intracellular receptor 1 (Rattus norvegicus) (UniProt Q9R0C9). Put plainly: Displacement of [3H] (+)-pentazocine from sigma 1 receptor in rat liver homogenate at 100 nM. The assay is classed as tissue-based. On the technique in general: In a radioligand displacement assay an active substance lowers the binding of a labelled ligand.
The species entered for assay [2] is Rattus norvegicus. Briefly: Displacement of [3H]DTH from sigma 2 receptor in rat liver homogenate at 100 nM in presence of (+)-pentazocine. The assay is classed as tissue-based.
Assay [3] is described as follows: Displacement of [3H]DTH from sigma 2 receptor in rat liver homogenate in presence of (+)-pentazocine. The assay is classed as tissue-based.
The target of assay [4] is Sigma non-opioid intracellular receptor 1 (Rattus norvegicus, UniProt Q9R0C9). Briefly: Displacement of [3H] (+)-pentazocine from sigma 1 receptor in rat liver homogenate. The assay is classed as tissue-based.
Sequence of Sigma non-opioid intracellular receptor 1 (Q9R0C9 whole entry): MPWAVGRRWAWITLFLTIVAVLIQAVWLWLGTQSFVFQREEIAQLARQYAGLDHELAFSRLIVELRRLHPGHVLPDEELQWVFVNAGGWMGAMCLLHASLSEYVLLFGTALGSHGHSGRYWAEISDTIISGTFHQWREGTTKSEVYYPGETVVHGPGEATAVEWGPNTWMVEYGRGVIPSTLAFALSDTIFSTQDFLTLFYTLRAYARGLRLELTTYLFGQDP
The species named for assay [5] is Rattus norvegicus. Briefly: Selectivity ratio of Ki for rat sigma 1 receptor to Ki for rat sigma 2 receptor.

Sequence of Sigma non-opioid intracellular receptor 1 (Rattus norvegicus) (Q9R0C9 whole entry): as above

As for `CN(CCCc1cn(-c2ccc(F)cc2)c2ccccc12)Cc1ccccc1F`, the Activity was 59% in assay [1] and 46% in the assay filed under Rattus norvegicus [2].

In the case of `CN(CCCc1cn(-c2ccc(F)cc2)c2ccccc12)Cc1cccc(Br)c1`, the Activity in assay [1] was 40%; in the assay filed under Rattus norvegicus [2], 62%.

With `Cc1cccc(CN(C)CCCCc2cn(-c3ccc(F)cc3)c3ccccc23)c1`, the Activity in assay [1] came to 51%; in the assay listed under Rattus norvegicus [2], 85%.

`CN(CCCc1cn(-c2ccc(F)cc2)c2ccccc12)Cc1ccc(Br)cc1`: the Activity in assay [1] was found to be 71%; in the assay filed under Rattus norvegicus [2] it was 54%.

Consider `CN(CCCCc1cn(-c2ccc(F)cc2)c2ccccc12)Cc1cccc(Cl)c1`, for which the inhibition constant (Ki) (commonly a dissociation constant, usually derived from enzyme kinetics or from competition with a known ligand) was 25.6 nM in assay [3] and 201 nM in assay [4]. Further, the Activity in assay [1] came to 22%; in the assay listed under Rattus norvegicus [2], 89%. Also, the Ratio Ki in the assay filed under Rattus norvegicus [5] stood at 7.9.

`CN(CCCc1cn(-c2ccc(F)cc2)c2ccccc12)Cc1ccccc1`: the inhibitory constant (Ki) amounted to 444 nM in assay [3] and 20.8 nM in assay [4]. The Activity in assay [1] was found to be 78%; in the assay listed under Rattus norvegicus [2], 27%. For the same compound, in the assay filed under Rattus norvegicus [5], the Ratio Ki amounted to 0.05.

Take `CN(CCCCc1cn(-c2ccc(F)cc2)c2ccccc12)Cc1ccccc1F`: the results for the Activity (in assay [1]; in the assay filed under Rattus norvegicus [2]) were 49% and 88%, respectively.

Regarding `CN(CCCc1cn(-c2ccc(F)cc2)c2ccccc12)Cc1cccc(Cl)c1`, the figures for the inhibitory constant (Ki) in assay [3] and in assay [4] were 124 nM and 98.9 nM, respectively. Besides, the results for the Activity (in assay [1]; in the assay listed under Rattus norvegicus [2]) were 42% and 59%, respectively. For the same compound, in the assay listed under Rattus norvegicus [5], the Ratio Ki is 0.8.

Take `CN(CCCCc1cn(-c2ccc(F)cc2)c2ccccc12)Cc1cccc(Br)c1`: the Activity came to 28% in assay [1] and 78% in the assay listed under Rattus norvegicus [2].

Turning to `CN(CCCc1cn(-c2ccc(F)cc2)c2ccccc12)Cc1ccccc1Cl`, the Activity in assay [1] is 56%; in the assay listed under Rattus norvegicus [2], 40%.

`Cc1ccc(CN(C)CCCCc2cn(-c3ccc(F)cc3)c3ccccc23)cc1`: the Activity was 71% in assay [1] and 87% in the assay listed under Rattus norvegicus [2].

Turning to `Cc1ccc(CN(C)CCCc2cn(-c3ccc(F)cc3)c3ccccc23)cc1C`, the values for the Ki in assay [3] and in assay [4] were 46.9 nM and 118 nM, respectively. Also, the Activity in assay [1] was found to be 38%; in the assay listed under Rattus norvegicus [2], 85%. In addition, the Ratio Ki in the assay listed under Rattus norvegicus [5] turned out to be 2.5.

For the compound `CN(CCCCc1cn(-c2ccc(F)cc2)c2ccccc12)Cc1ccccc1Cl`, the Activity in assay [1] was determined as 58%; in the assay filed under Rattus norvegicus [2] it was 87%.

For `COc1cccc2c1CCCC2CCCCN1CCN(C2CCCCC2)CC1` (stereo not drawn), the Ki in assay [3] was determined as 0.34 nM.

Consider `CN(CCCc1cn(-c2ccc(F)cc2)c2ccccc12)Cc1ccc(Cl)cc1`, for which the Activity in assay [1] was determined as 68%; in the assay listed under Rattus norvegicus [2], 59%.

On to `CN(CCCCc1cn(-c2ccc(F)cc2)c2ccccc12)Cc1ccc(Cl)c(Cl)c1`, for which the Activity stood at 10% in assay [1] and 69% in the assay filed under Rattus norvegicus [2].

In the case of `CN(CCCc1cn(-c2ccc(F)cc2)c2ccccc12)Cc1ccccc1Br`, the Activity came to 41% in assay [1] and 43% in the assay filed under Rattus norvegicus [2].

`Cc1ccc(CN(C)CCCCc2cn(-c3ccc(F)cc3)c3ccccc23)cc1C`: the Ki amounted to 5.9 nM in assay [3] and 20.8 nM in assay [4]. Moreover, the Activity in assay [1] worked out at 37%; in the assay filed under Rattus norvegicus [2] it was 93%. The Ratio Ki in the assay listed under Rattus norvegicus [5] amounted to 0.05.

As for `CN(CCCCc1cn(-c2ccc(F)cc2)c2ccccc12)Cc1ccccc1`, the Ki came out at 57.7 nM in assay [3] and 43 nM in assay [4]. Further, the Activity was 76% in assay [1] and 68% in the assay listed under Rattus norvegicus [2]. The Ratio Ki in the assay listed under Rattus norvegicus [5] is 0.76.

With `CN(CCCCc1cn(-c2ccc(F)cc2)c2ccccc12)Cc1ccccc1Br`, the results for the Activity (in assay [1]; in the assay listed under Rattus norvegicus [2]) were 46% and 86%, respectively.

Regarding `CN(CCCCc1cn(-c2ccc(F)cc2)c2ccccc12)Cc1ccc(Cl)cc1`, the Activity in assay [1] was 72%; in the assay listed under Rattus norvegicus [2], 85%.

For the compound `Cc1ccc(CN(C)CCCc2cn(-c3ccc(F)cc3)c3ccccc23)cc1`, the results for the Activity (in assay [1]; in the assay filed under Rattus norvegicus [2]) were 69% and 78%, respectively.

Take `CN(CCCc1cn(-c2ccc(F)cc2)c2ccccc12)Cc1ccc(Cl)c(Cl)c1`: the figures for the Activity (in assay [1]; in the assay filed under Rattus norvegicus [2]) were 28% and 39%, respectively.

As for `Fc1ccc(-n2cc(CCCCN3CCC4(CC3)OCc3ccccc34)c3ccccc32)cc1` [SIRAMESINE], the 50% inhibitory concentration (IC50) (in general, the concentration that gives 50% inhibition) in assay [3] was found to be 0.12 nM.

For the compound `CN(CCCCc1cn(-c2ccc(F)cc2)c2ccccc12)Cc1ccc(Br)cc1`, the Activity in assay [1] worked out at 70%; in the assay listed under Rattus norvegicus [2], 84%.

Take `Cc1cccc(CN(C)CCCc2cn(-c3ccc(F)cc3)c3ccccc23)c1`: the Activity in assay [1] was 63%; in the assay listed under Rattus norvegicus [2], 64%.
